Test results: ChEMBL document CHEMBL6127116, “Discovery of Potent and Selective Blockers Targeting the Epilepsy-Associated KNa1.1 Channel” (J Med Chem, 2024); call rule not given here

Legend:
[1] = target: T1, Potassium channel subfamily T member 1 (Homo sapiens, UniProt Q5JUK3); assay: Inhibition of wild type human KNa1.1 expressed in HEK293T cells by patch-clamp electrophysiology method; format: cell-based
T1 sequence (Q5JUK3 whole entry): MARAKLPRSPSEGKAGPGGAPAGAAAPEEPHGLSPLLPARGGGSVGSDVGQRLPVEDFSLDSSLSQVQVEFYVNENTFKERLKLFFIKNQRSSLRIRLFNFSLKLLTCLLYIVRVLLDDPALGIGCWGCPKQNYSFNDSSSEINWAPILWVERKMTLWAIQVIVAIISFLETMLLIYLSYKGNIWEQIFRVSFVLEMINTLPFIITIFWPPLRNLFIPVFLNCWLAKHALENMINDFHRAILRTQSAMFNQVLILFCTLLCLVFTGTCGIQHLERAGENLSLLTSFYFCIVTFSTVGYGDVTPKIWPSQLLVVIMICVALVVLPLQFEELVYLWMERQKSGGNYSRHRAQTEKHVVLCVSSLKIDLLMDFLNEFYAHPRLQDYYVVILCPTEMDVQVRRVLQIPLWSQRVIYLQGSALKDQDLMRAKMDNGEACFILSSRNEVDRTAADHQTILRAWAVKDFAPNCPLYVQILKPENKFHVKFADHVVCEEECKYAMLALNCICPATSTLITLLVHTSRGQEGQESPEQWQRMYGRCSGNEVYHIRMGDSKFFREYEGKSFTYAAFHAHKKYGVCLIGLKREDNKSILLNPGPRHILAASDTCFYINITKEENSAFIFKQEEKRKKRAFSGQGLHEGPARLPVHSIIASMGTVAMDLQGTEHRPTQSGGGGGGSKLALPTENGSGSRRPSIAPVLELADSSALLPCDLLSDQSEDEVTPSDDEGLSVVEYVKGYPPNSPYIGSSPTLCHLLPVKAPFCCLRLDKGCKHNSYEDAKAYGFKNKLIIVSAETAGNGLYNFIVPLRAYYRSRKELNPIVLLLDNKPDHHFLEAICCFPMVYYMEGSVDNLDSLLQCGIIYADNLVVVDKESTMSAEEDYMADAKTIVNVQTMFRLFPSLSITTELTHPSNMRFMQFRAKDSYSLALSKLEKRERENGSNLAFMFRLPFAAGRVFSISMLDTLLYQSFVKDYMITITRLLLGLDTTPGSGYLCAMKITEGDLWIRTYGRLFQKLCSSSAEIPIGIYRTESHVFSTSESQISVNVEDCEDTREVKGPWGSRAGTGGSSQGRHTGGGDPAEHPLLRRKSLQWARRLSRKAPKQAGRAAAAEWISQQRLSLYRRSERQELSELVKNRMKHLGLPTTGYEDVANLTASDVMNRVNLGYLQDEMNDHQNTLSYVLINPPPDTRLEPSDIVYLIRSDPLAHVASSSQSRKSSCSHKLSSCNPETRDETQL

HEK293 = assay: Cytotoxicity against HEK293 cells assessed as reduction in cell viability at 10 uM by CCK8 method relative to control; format: toxicity, cell-based; conditions: human, hek293, 10 µM
[2] = Cmax in male ICR mouse at 10 mg/kg, iv administered as single dose measured upto 24 hrs by HPLC analysis; format: ADME, organism-based; conditions: in vivo
[3] = Tmax in male ICR mouse at 10 mg/kg, iv administered as single dose measured upto 24 hrs by HPLC analysis; format: ADME, organism-based; conditions: in vivo
[4] = Half life in male ICR mouse at 10 mg/kg, iv administered as single dose measured upto 24 hrs by HPLC analysis; format: ADME, organism-based; conditions: in vivo
[5] = AUC (0 to t) in male ICR mouse at 10 mg/kg, iv administered as single dose measured upto 24 hrs by HPLC analysis; format: ADME, organism-based; conditions: in vivo
[6] = Clearance in male ICR mouse at 10 mg/kg, iv administered as single dose measured upto 24 hrs by HPLC analysis; format: ADME, organism-based; conditions: in vivo
[7] = MRT (0 to t) in male ICR mouse at 10 mg/kg, iv administered as single dose measured upto 24 hrs by HPLC analysis; format: ADME, organism-based; conditions: in vivo
[8] = Volume of distribution at steady state in male ICR mouse at 10 mg/kg, iv administered as single dose measured upto 24 hrs by HPLC analysis; format: ADME, organism-based; conditions: in vivo, read-out: Vdss
[9] = Cmax in male ICR mouse at 50 mg/kg, po administered as single dose measured upto 24 hrs by HPLC analysis; format: ADME, organism-based; conditions: in vivo
[10] = Tmax in male ICR mouse at 50 mg/kg, po administered as single dose measured upto 24 hrs by HPLC analysis; format: ADME, organism-based; conditions: in vivo
[11] = Half life in male ICR mouse at 50 mg/kg, po administered as single dose measured upto 24 hrs by HPLC analysis; format: ADME, organism-based; conditions: in vivo
[12] = AUC (0 to t) in male ICR mouse at 50 mg/kg, po administered as single dose measured upto 24 hrs by HPLC analysis; format: ADME, organism-based; conditions: in vivo
[13] = MRT (0 to t) in male ICR mouse at 50 mg/kg, po administered as single dose measured upto 24 hrs by HPLC analysis; format: ADME, organism-based; conditions: in vivo
[14] = Oral bioavailability in male ICR mouse at 50 mg/kg administered as single dose measured upto 24 hrs by HPLC analysis; format: ADME, organism-based; conditions: in vivo
[15] = Drug concentration in male ICR mouse brain at 10 mg/kg, iv measured after 0.5 hrs by LC-MS/MS analysis; format: ADME, organism-based; conditions: read-out: Ct
[16] = Drug concentration in male ICR mouse plasma at 10 mg/kg, iv measured after 0.5 hrs by LC-MS/MS analysis; format: ADME, organism-based
[17] = Ratio of drug concentration in male ICR mouse brain to plasma at 10 mg/kg, iv measured after 0.5 hrs by LC-MS/MS analysis; format: ADME, organism-based; conditions: brain and plasma, read-out: BPR
[18] = Drug concentration in male ICR mouse brain at 10 mg/kg, iv measured after 2 hrs by LC-MS/MS analysis; format: ADME, organism-based; conditions: read-out: Ct
[19] = Drug concentration in male ICR mouse plasma at 10 mg/kg, iv measured after 2 hrs by LC-MS/MS analysis; format: ADME, organism-based
[20] = Ratio of drug concentration in male ICR mouse brain to plasma at 10 mg/kg, iv measured after 2 hrs by LC-MS/MS analysis; format: ADME, organism-based; conditions: brain and plasma, read-out: BPR
[21] = Drug concentration in male ICR mouse brain at 50 mg/kg, po measured after 0.5 hrs by LC-MS/MS analysis; format: ADME, organism-based; conditions: read-out: Ct
[22] = Drug concentration in male ICR mouse plasma at 50 mg/kg, po measured after 0.5 hrs by LC-MS/MS analysis; format: ADME, organism-based
[23] = Ratio of drug concentration in male ICR mouse brain to plasma at 50 mg/kg, po measured after 0.5 hrs by LC-MS/MS analysis; format: ADME, organism-based; conditions: brain and plasma, read-out: BPR
[24] = Drug concentration in male ICR mouse brain at 50 mg/kg, po measured after 2 hrs by LC-MS/MS analysis; format: ADME, organism-based; conditions: read-out: Ct
[25] = Drug concentration in male ICR mouse plasma at 50 mg/kg, po measured after 2 hrs by LC-MS/MS analysis; format: ADME, organism-based
[26] = Ratio of drug concentration in male ICR mouse brain to plasma at 50 mg/kg, po measured after 2 hrs by LC-MS/MS analysis; format: ADME, organism-based; conditions: brain and plasma, read-out: BPR
[27] = Inhibition of KNa1.1 F327I mutant (unknown origin) expressed in HEK293T cells by patch-clamp electrophysiology method; format: cell-based; conditions: Homo sapiens, HEK-293T
[28] = target: T2, Voltage-gated inwardly rectifying potassium channel KCNH2 (Homo sapiens, UniProt Q12809); assay: Inhibition of human ERG expressed in Xenopus laevis oocytes by two-electrode voltage clamp method; format: toxicity, cell-based, Oocyte
[29] = Inhibition of human KNa1.1 Y796H mutant expressed in HEK293T cells by patch-clamp electrophysiology method; format: cell-based; conditions: HEK-293T
[30] = target: Sodium channel protein type 5 subunit alpha (Homo sapiens, UniProt Q14524); assay: Inhibition of Nav1.5 (unknown origin) expressed in HEK293T cells at 10 uM by patch-clamp electrophysiology method; format: cell-based
[31] = target: T2, Voltage-gated inwardly rectifying potassium channel KCNH2; assay: Inhibition of human ERG expressed in Xenopus laevis oocytes at 10 uM by two-electrode voltage clamp method; format: toxicity, cell-based; conditions: oocyte

T2 sequence (Q12809 whole entry): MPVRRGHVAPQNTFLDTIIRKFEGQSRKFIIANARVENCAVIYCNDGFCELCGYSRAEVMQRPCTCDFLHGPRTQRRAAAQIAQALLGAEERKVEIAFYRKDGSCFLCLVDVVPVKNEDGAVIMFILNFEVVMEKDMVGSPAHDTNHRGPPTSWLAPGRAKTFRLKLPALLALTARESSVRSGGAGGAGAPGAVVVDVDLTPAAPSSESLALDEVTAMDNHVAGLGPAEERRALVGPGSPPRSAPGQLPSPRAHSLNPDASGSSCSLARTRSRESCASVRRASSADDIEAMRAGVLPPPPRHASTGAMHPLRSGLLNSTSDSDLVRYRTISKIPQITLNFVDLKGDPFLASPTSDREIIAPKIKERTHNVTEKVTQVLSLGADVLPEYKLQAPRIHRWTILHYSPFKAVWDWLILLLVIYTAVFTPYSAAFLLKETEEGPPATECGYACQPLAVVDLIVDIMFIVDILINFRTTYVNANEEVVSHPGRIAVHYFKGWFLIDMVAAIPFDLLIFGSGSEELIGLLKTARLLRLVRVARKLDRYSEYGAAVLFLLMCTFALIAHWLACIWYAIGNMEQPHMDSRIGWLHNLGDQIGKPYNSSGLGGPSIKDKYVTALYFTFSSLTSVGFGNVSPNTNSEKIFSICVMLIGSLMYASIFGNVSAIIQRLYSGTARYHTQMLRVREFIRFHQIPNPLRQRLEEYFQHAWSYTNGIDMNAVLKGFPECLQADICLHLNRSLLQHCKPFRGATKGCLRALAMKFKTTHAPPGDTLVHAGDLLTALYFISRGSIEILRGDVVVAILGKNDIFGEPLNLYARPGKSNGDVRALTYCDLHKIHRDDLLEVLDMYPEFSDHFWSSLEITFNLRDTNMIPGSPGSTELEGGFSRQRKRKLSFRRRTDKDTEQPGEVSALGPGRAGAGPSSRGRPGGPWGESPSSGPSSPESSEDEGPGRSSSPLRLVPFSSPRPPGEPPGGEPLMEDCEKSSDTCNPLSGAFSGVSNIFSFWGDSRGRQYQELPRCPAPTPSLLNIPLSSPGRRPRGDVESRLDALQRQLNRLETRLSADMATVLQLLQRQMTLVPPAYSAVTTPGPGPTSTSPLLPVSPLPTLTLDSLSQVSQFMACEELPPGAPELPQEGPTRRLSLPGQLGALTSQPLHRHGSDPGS
Sodium channel protein type 5 subunit alpha, sequence (Q14524 whole entry): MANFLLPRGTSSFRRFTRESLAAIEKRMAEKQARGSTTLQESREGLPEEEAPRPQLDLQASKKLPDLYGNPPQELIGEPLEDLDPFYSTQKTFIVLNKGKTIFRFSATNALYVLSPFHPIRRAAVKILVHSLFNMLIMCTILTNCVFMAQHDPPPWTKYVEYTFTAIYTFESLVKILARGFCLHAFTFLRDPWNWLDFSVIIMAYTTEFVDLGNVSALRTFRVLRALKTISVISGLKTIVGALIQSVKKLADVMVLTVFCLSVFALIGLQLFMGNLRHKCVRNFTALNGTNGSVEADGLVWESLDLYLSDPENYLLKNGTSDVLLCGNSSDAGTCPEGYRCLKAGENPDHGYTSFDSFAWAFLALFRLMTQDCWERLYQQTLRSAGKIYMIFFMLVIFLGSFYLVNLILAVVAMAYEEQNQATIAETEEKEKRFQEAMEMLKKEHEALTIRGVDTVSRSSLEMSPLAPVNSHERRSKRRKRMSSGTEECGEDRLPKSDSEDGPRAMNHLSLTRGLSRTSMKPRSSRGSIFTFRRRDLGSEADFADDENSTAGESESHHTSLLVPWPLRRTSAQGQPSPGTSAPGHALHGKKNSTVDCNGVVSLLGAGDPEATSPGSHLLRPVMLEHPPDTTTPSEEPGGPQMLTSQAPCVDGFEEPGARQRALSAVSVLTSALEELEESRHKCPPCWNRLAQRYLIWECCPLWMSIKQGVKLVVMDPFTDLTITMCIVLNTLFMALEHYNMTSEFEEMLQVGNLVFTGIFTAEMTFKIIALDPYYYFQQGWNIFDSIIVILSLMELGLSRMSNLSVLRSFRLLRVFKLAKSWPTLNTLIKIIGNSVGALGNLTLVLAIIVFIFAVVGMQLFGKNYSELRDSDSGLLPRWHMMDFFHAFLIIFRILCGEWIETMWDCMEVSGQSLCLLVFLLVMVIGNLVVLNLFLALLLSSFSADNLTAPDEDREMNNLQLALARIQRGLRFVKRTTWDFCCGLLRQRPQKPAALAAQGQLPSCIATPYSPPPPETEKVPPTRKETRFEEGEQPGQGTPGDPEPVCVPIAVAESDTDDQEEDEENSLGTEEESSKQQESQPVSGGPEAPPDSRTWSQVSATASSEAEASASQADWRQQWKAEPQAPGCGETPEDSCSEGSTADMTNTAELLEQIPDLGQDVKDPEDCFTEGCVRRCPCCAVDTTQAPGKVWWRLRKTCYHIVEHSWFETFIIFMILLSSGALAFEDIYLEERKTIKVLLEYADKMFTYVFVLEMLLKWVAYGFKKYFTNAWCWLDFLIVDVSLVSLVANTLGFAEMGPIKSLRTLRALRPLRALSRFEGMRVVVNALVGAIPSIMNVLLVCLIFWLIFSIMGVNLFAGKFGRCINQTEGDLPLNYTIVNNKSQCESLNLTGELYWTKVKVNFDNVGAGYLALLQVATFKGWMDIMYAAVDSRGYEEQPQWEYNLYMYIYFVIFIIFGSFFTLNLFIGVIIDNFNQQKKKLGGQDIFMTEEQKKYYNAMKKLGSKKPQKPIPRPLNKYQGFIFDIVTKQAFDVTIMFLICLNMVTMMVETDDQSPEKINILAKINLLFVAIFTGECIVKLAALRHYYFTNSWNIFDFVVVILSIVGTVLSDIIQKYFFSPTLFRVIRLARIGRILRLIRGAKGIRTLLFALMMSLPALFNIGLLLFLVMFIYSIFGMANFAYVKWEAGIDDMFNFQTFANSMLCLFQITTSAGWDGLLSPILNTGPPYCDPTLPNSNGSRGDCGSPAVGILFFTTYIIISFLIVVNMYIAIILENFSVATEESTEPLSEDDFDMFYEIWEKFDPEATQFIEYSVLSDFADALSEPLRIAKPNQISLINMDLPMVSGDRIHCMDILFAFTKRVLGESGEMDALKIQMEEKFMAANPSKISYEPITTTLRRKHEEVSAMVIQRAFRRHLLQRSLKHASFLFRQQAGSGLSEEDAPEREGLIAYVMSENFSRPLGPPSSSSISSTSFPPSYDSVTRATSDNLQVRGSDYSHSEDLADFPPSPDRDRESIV

For `c1ccc(COc2ccc3ccccc3c2CCC2CCNCC2)cc1`, the IC50 [1] was 3.43 µM, the Activity (HEK293) was 99.63% and the Cmax [2] was 2180 ng/mL. It also gave a Tmax [3] of 4.8 min, a half-life [4] of 2.46 h and an AUC(0-t) at 24 h [5] of 4550 ng·h/mL. The clearance [6] was 36.6 mL/min/kg, the MRT last at 24 h [7] was 3.12 h and the Vd [8] was 6.91 L/kg. The Cmax [9] was 1290 ng/mL, the Tmax [10] was 0.5 h and the half-life [11] was 3.11 h. For the same compound, the AUC(0-t) at 24 h [12] was 7450 ng·h/mL, the MRT last at 24 h [13] was 4.96 h and the bioavailability [14] was 32.8%. The concentration at 0.5 h [15] was 8010 ng/mL, the concentration at 0.5 h [16] was 1030 ng/mL and the Kp at 0.5 h [17] was 7.8. The concentration at 2 h [18] was 3330 ng/mL, the concentration at 2 h [19] was 605 ng/mL and the Kp at 2 h [20] was 5.51. It also gave a concentration at 0.5 h [21] of 604 ng/mL, a concentration at 0.5 h [22] of 1290 ng/mL and a Kp at 0.5 h [23] of 0.47. It also gave a concentration at 2 h [24] of 1200 ng/mL, a concentration at 2 h [25] of 893 ng/mL and a Kp at 2 h [26] of 1.34. The IC50 [27] was 24.2 µM, the IC50 [28] was 90.2 µM and the IC50 [29] was 0.4 µM. For the same compound, the “inhibition (INH)” value [30] was “Not Active” and the “inhibition (INH)” value [31] was “Not Active”.
